The values that follow come from publication PMC8000760, “Potential Effect of Pseudevernia furfuracea (L.) Zopf Extract and Metabolite Physodic Acid on Tumour Microenvironment Modulation in MCF-10A Cells” (Biomolecules, 2021).

Assay [1] relates to E-cadherin in BJ-5ta. Description: Western blot of E-cadherin in TGF-β-stimulated fibroblasts. The conditions noted are these: TGF-β-stimulated BJ-5ta, 48 and 72 h. It counts as cell-based. Here is the method:
(§1) The MCF-10A and BJ-5ta cells were seeded and cultivated for 24 h in a complete medium. One day after seeding, 30 ng/mL of TGF-β was added and cultivated for 7 days (d). TGF-β was added to induce epithelial–mesenchymal transition in tested cell lines. Lichen extract P. furfuracea (L.) Zopf and its metabolite physodic acid were added at time 0 h and then incubated for 24, 48 and 72 h for various analyses, as described in Figure 1.
(§2) Proteins isolated from MCF-10A and BJ-5ta cell lysates were determined by the Pierce® BCA Protein Assay Kit (Thermo Scientific, Rockford, IL, United States), using bovine serum albumin (BSA) as the standard, and measured by an automated Cytation™ 3 Cell Imaging Multi-Mode Reader (Biotek) at a wavelength of 570 nm. Proteins were separated on SDS-PAA gel (12%) at 100 V for 2 h and then transferred to a polyvinylidene difluoride (PVDF) membrane using the iBlot dry blotting system (Thermo Scientific, Rockford, IL, United States). […] After incubation, the membrane was again washed in TBS-Tween (3 × 5 min), and the expression of the protein was detected using a chemiluminescent ECL substrate (Thermo Fisher Scientific) and MF-ChemiBIS 2.0 Imaging System (DNR BIO-Imaging Systems, Jerusalem, Israel). The detected band was then analysed densitometrically using the Image Studio Lite software (LI-COR Biosciences, Lincoln, NE, USA). […]
(A western blot detects proteins with antibodies after separation by electrophoresis.)

Assay [2] has as its system pSmad2/3 in BJ-5ta. Description: Western blot of phospho-Smad2/3 in TGF-β-stimulated fibroblasts. It counts as cell-based. To be noted: TGF-β-stimulated BJ-5ta, time-dose manner. On the procedure:
as §1, §2

Assay [3] concerns HUVECs. Description: MTS cell viability assay. It counts as cell-based, human. The conditions noted are these: 48 h. On the procedure: (§3) Briefly, MCF-10A and BJ-5ta were seeded in 96-well culture plates, and after 24 h incubation, treated with various ranges of concentrations of tested compounds (10–100 μg/mL) for 72 h. At the same time, HUVECs were seeded in a gelatine-coated 96-well plate and treated with the same aliquots of indicated compounds in the presence or absence of VEGF (Vascular endothelial growth factor) (25 ng/mL) for 48 h. Cell viability was evaluated by measuring the absorbance at 490 nm using the automated CytationTM 3 Cell Imaging Multi-Mode Reader (Biotek, Winooski, VT, USA). Three independent experiments were performed at different intervals.
On the technique in general: Formazan colour is commonly taken as a measure of viable cells.

Assay [4] deals with MCF-10A. Description: MTS cell viability assay. It counts as cell-based, human. To be noted: 72 h. Here is the method: as §3
The test system of assay [5] is Smad2/3 in BJ-5ta. Description: Western blot of total Smad2/3 in TGF-β-stimulated fibroblasts. The class given is cell-based. To be noted: TGF-β-stimulated BJ-5ta. On the procedure: as §1, §2

The IC10 is the point of the concentration-response curve where the effect stands at 10%. Broadly, the IC50 is the concentration needed to halve the response being measured. A lower IC50 goes with greater potency in that assay.

As to `CCCCCC(=O)Cc1cc(O)cc2c1C(=O)Oc1cc(O)c(C(=O)O)c(CCCCC)c1O2` [Phy, physodic acid], the “expression of epithelial marker E-cadherin” value in assay [1] is given as “did not significantly change”. For the same molecule, in assay [2], the “phosphorylation levels of Smad2 and Smad3 (pSmad2/3)” value is on record as “decreased”. In addition, the VEGF-induced cell growth result in assay [3] (HUVECs with VEGF 25 ng/mL) was “significantly inhibited”. The “cell growth of non-stimulated HUVECs” value in assay [3] (HUVECs without VEGF) is on record as “no significant differences”. Also, the IC10 is 60.62 ± 3.30 µM in assay [3] (HUVECs) and 59.25 ± 1.36 µM in assay [4]. Besides, the IC50 in assay [3] (Homo sapiens, HUVEC, HUVECs) is 92.8 ± 3.62 µM; in assay [4] (Homo sapiens), 79.9 ± 0.93 µM. Moreover, the “total Smad2/3 levels” value in assay [5] is listed as “altered minimally”.
